Results: patent US20040053822A1, “Inducing cellular immune responses to mage2/3 using peptide and nucleic acid compositions” (priority 2002, published 2004)

Key:
[1] = molecular target: HLA-A*0203 (Homo sapiens, UniProt P04439, A173T/D140Y/D185E/D98H/E277Q/G131W/G231S/I119V/I121R/I166T/I218V/L180W/L300P/L318F/N151K/N90K/P208A/P217A/Q86G/Q94H/R138H/R169H/T345S); test: Purified HLA class I peptide binding assay, A*0203; settings: binding affinity, A2 supermotif peptides and analogs
[2] = molecular target: HLA-A*0202 (Homo sapiens, UniProt P04439, D140Y/D185E/D98H/E176V/E277Q/G131W/G231S/I119L/I121R/I166T/I218V/L180W/L300P/L318F/N151K/N90K/P208A/P217A/Q67R/Q86G/Q94H/R138H/R169H/T345S); test: Purified HLA class I peptide binding assay, A*0202; settings: binding affinity, A2 supermotif peptides and analogs
[3] = molecular target: HLA-A*6802 (Homo sapiens, UniProt P04439, A269V/D140Y/D185E/E176V/E277Q/E87N/F33Y/G231S/I121R/I166T/I218V/L180W/L300P/L318F/N151K/P208A/P217A/Q86R/R138H/R169H/S129P/T345S/V36M); test: Purified HLA class I peptide binding assay, A*6802; settings: binding affinity, A2 supermotif peptides and analogs
[4] = molecular target: HLA-A*0206 (Homo sapiens, UniProt P04439, D140Y/D185E/D98H/E176V/E277Q/F33Y/G131W/G231S/I119V/I121R/I166T/I218V/L300P/L318F/N151K/N90K/P208A/P217A/Q86G/Q94H/R138H/R169H/T345S); test: Purified HLA class I peptide binding assay, A*0206; settings: binding affinity, A2 supermotif peptides and analogs
[5] = molecular target: HLA-A*0201 (Homo sapiens, UniProt P04439, D140Y/D185E/D98H/E176V/E277Q/G131W/G231S/I119V/I121R/I166T/I218V/L300P/L318F/N151K/N90K/P208A/P217A/Q86G/Q94H/R138H/R169H/T345S); test: Purified HLA class I peptide binding assay, A*0201; settings: binding affinity, A2 supermotif peptides and analogs
[6] = molecular target: HLA-A*3301 (Homo sapiens, UniProt P04439, A270S/D185E/E176V/E277Q/E87N/F33T/G231S/H175R/I121M/I218V/I322F/K168Q/K210R/L300P/L318F/M331R/P217A/Q86R/Q94H/R138Q/T323A/T345S/T97I/V358M/Y195H); test: Purified HLA class I peptide binding assay, A*3301; settings: binding affinity, HLA-A3 supermotif-bearing peptides
[7] = molecular target: HLA-A*1101 (Homo sapiens, UniProt P04439, A114D/D185E/E176A/F33Y/L180Q/S129P/T187R); test: Purified HLA class I peptide binding assay, A*1101; settings: binding affinity, HLA-A3 supermotif-bearing peptides
[8] = molecular target: HLA-A*6801 (Homo sapiens, UniProt P04439, A269V/D185E/E176V/E277Q/E87N/F33Y/G231S/I121M/I166T/I218V/L180W/L300P/L318F/N151K/P208A/P217A/Q86R/R169H/T345S); test: Purified HLA class I peptide binding assay, A*6801; settings: binding affinity, HLA-A3 supermotif-bearing peptides
[9] = molecular target: HLA-A*0301 (Homo sapiens, UniProt P04439); test: Purified HLA class I peptide binding assay, A*0301; settings: binding affinity, HLA-A3 supermotif-bearing peptides
[10] = molecular target: HLA-A*3101 (Homo sapiens, UniProt P04439, A270S/D185E/E176V/E277Q/F33T/G231S/G80R/H175R/I121M/I218V/I322F/K168Q/L300P/L318F/M331R/P217A/Q94H/R138Q/T323A/T345S/T97I/V358M); test: Purified HLA class I peptide binding assay, A*3101; settings: binding affinity, HLA-A3 supermotif-bearing peptides
[11] = system: peptide-specific CTL from PBMC; test: CTL immunogenicity of A3, B7 supermotif and A1, A24 motif peptides (methodology analogous to A2); format: cell-based, human; settings: positive/tested
Procedure: HLA-A3 supermotif-bearing cross-reactive binding peptides are also evaluated for immunogenicity using methodology analogous for that used to evaluate the immunogenicity of the HLA-A2 supermotif peptides.
Analogous methodology, as appreciated by one of ordinary skill in the art, is employed to determine immunogenicity of peptides bearing HLA class I motifs and/or supermotifs set out herein.

[12] = molecular target: HLA-DRB1*0401 (DR4w4) (Homo sapiens, UniProt P01903+P01911, A100K/A169T/F76Y/I96L/K127E/L162R/M171V/N62H/P40V/Q125Y/R42H/S133A/S149N/S66Y/V115G/V209L/W38E); test: Purified HLA class II peptide binding assay, DRB1*0401

Row | SMILES | IC50 [1] [nM] | IC50 [2] [nM] | IC50 [3] [nM] | IC50 [4] [nM] | IC50 [5] [nM] | further results
1 | CC(C)C[C@H](NC(=O)[C@H](CCC(=O)O)NC(=O)[C@H](C)NC(=O)[C@H](CC(C)C)NC(=O)[C@@H](N)CCCCN)C(=O)N[C@H](C(=O)N[C@@H](Cc1c[nH]cn1)C(=O)N[C@@H](Cc1ccccc1)C(=O)N[C@H](C(=O)O)C(C)C)C(C)C | 22 | 13 | 73 | 15 |  | 
2 | CSCC[C@H](NC(=O)[C@@H](N)CCCCN)C(=O)N[C@@H](C)C(=O)N[C@@H](CCC(=O)O)C(=O)N[C@@H](CC(C)C)C(=O)N[C@H](C(=O)N[C@@H](Cc1c[nH]cn1)C(=O)N[C@@H](Cc1ccccc1)C(=O)N[C@H](C(=O)O)C(C)C)C(C)C |  |  | 170 | 39 | 26 | 
3 | CC[C@H](C)[C@H](NC(=O)[C@H](CC(C)C)NC(=O)[C@H](C)N)C(=O)N[C@@H](CCC(=O)O)C(=O)N[C@H](C(=O)N[C@@H](CO)C(=O)N[C@@H](Cc1ccc(O)cc1)C(=O)N[C@H](C(=O)N[C@@H](CCCCN)C(=O)O)C(C)C)[C@@H](C)O |  |  |  |  |  | IC50 [6]: > 10 µM; IC50 [7]: 32 nM; IC50 [8]: 286 nM; IC50 [9]: 136 nM; IC50 [10]: 900 nM
4 | CC[C@H](C)[C@H](NC(=O)[C@@H](NC(=O)[C@@H](N)[C@@H](C)O)[C@@H](C)O)C(=O)N[C@@H](CC(N)=O)C(=O)N[C@@H](Cc1ccc(O)cc1)C(=O)N[C@H](C(=O)N[C@@H](CC(C)C)C(=O)N[C@@H](Cc1c[nH]c2ccccc12)C(=O)N[C@@H](CCCNC(=N)N)C(=O)O)[C@@H](C)O |  |  |  |  |  | CTL Tumor ([11]; CTL recognition of tumor targets): 2/5; CTL Wild-type ([11]; CTL recognition of wild-type peptide): 7/7
5 | CSCC[C@H](NC(=O)[C@@H](N)CCCCN)C(=O)N[C@@H](C)C(=O)N[C@@H](CCC(=O)O)C(=O)N[C@@H](CC(C)C)C(=O)N[C@H](C(=O)N[C@@H](Cc1c[nH]cn1)C(=O)N[C@@H](Cc1ccccc1)C(=O)N[C@@H](CC(C)C)C(=O)O)C(C)C |  | 6.7 | 286 | 26 | 24 | 
6 | CC[C@H](C)[C@H](NC(=O)[C@H](C)NC(=O)[C@@H](NC(=O)[C@@H](NC(=O)[C@H](C)NC(=O)[C@H](CC(C)C)NC(=O)[C@@H](NC(=O)[C@@H](NC(=O)[C@@H](NC(=O)[C@H](CC(C)C)NC(=O)[C@@H](N)CC(C)C)[C@@H](C)CC)[C@@H](C)CC)C(C)C)[C@@H](C)CC)[C@@H](C)CC)C(=O)N[C@@H](CCC(=O)O)C(=O)NCC(=O)N[C@@H](CC(=O)O)C(=O)N[C@@H](CS)C(=O)O |  |  |  |  |  | IC50 [12]: 3.75 µM
7 | CC[C@H](C)[C@H](NC(=O)[C@H](CC(C)C)NC(=O)[C@H](C)N)C(=O)N[C@@H](CCC(=O)O)C(=O)N[C@H](C(=O)N[C@@H](CO)C(=O)N[C@@H](Cc1ccc(O)cc1)C(=O)N[C@H](C(=O)N[C@@H](CCCCN)C(=O)N[C@H](C(=O)O)C(C)C)C(C)C)[C@@H](C)O | 125 | 729 | 3080 | 1950 |  | 
8 | CC[C@H](C)[C@H](NC(=O)[C@@H](N)CCCCN)C(=O)N[C@@H](Cc1c[nH]c2ccccc12)C(=O)N[C@@H](CCC(=O)O)C(=O)N[C@@H](CCC(=O)O)C(=O)N[C@@H](CC(C)C)C(=O)N[C@@H](CO)C(=O)N[C@@H](CCSC)C(=O)N[C@@H](CC(C)C)C(=O)O | 175 | 642 | > 10000 |  | 167 | 
9 | CC[C@H](C)[C@H](NC(=O)[C@H](Cc1ccc(O)cc1)NC(=O)[C@H](CC(C)C)NC(=O)[C@@H](N)Cc1c[nH]cn1)C(=O)N[C@@H](Cc1ccccc1)C(=O)N[C@@H](C)C(=O)N[C@H](C(=O)N[C@@H](CS)C(=O)N[C@@H](CC(C)C)C(=O)NCC(=O)N[C@@H](CC(C)C)C(=O)O)[C@@H](C)O | 769 |  | 4490 | > 10000 | 56 | 
